In ChEMBL document CHEMBL5291721, “A preclinical secondary pharmacology resource illuminates target-adverse drug reaction associations of marketed drugs” (Nat Commun, 2023) one finds AC50 data, which are given here for 24 molecules.

What is called AC50 is the midpoint of the concentration-response curve, whichever way the signal moves.

One assay addresses Histamine H1 receptor (Homo sapiens, UniProt P35367). The class given is functional, cell-based.
For assay [1], the target named is T1, Estrogen receptor (Homo sapiens, UniProt P03372).
T1 sequence (P03372 whole entry): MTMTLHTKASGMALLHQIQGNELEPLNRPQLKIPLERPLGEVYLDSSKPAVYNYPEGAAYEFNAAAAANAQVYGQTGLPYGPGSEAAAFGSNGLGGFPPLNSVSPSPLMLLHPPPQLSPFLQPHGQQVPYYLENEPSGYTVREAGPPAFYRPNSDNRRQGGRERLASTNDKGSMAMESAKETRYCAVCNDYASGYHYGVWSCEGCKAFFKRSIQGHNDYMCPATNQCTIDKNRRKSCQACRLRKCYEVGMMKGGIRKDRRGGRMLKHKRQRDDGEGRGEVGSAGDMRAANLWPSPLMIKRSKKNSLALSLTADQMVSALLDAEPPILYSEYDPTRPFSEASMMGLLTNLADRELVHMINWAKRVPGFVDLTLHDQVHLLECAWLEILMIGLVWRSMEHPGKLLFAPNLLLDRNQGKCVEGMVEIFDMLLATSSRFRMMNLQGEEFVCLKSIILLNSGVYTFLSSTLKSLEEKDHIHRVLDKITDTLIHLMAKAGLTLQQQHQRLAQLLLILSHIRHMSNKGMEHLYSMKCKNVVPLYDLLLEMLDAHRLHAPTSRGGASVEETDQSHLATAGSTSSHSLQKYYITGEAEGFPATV
It counts as functional.

For assay [2], the target named is T1, Estrogen receptor. The class given is functional. The source holds these as a separate data set.
For assay [3], the target named is T2, Muscarinic acetylcholine receptor M5 (Homo sapiens, UniProt P08912).
T2 sequence (P08912 whole entry): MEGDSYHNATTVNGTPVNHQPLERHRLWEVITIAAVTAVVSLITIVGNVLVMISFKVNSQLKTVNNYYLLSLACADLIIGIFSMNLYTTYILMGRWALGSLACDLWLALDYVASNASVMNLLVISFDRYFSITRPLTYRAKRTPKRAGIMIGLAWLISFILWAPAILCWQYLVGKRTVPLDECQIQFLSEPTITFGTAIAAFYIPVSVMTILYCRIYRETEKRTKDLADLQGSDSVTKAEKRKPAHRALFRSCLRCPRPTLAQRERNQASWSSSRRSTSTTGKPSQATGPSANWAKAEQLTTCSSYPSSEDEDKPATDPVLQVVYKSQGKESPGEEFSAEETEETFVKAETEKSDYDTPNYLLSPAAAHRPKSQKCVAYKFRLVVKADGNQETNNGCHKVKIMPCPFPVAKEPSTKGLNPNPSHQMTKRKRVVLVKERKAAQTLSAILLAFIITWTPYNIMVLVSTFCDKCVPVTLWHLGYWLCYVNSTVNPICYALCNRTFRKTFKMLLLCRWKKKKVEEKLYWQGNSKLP

Assay [4] addresses 5-hydroxytryptamine receptor 7 (Homo sapiens, UniProt P34969).
A further assay deals with Substance-P receptor (Homo sapiens, UniProt P25103).
The target of assay [5] is Voltage-dependent L-type calcium channel subunit alpha-1C (Homo sapiens, UniProt Q13936). The class given is functional, cell-based.
Assay [6] addresses T3, Alpha-1A adrenergic receptor (Homo sapiens, UniProt P35348).
T3 sequence (P35348 whole entry): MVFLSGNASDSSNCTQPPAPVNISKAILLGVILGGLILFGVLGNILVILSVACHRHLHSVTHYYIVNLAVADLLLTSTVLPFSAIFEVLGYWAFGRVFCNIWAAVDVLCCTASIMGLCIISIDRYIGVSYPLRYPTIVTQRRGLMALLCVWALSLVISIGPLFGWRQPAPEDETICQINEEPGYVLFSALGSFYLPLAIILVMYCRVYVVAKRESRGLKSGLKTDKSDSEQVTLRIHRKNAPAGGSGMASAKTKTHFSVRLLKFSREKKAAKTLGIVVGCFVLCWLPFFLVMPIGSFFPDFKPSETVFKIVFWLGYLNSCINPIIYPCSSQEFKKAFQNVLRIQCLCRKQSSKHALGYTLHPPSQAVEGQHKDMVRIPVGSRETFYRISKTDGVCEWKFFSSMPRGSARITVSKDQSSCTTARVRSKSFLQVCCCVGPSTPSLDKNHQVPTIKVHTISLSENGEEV
Further: assay procedure not described here.

Substance-P receptor, sequence (P25103 whole entry): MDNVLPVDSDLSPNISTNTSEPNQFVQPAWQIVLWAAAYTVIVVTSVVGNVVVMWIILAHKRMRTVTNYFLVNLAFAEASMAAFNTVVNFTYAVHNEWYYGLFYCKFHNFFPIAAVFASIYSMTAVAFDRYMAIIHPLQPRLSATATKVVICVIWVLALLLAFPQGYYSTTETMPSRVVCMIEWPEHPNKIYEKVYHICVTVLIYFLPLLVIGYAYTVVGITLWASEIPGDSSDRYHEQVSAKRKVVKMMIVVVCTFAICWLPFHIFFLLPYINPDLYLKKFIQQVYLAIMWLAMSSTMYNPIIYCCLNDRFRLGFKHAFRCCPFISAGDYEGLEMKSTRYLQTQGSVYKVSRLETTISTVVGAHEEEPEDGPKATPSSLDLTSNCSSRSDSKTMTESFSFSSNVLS
Histamine H1 receptor, sequence (P35367 whole entry): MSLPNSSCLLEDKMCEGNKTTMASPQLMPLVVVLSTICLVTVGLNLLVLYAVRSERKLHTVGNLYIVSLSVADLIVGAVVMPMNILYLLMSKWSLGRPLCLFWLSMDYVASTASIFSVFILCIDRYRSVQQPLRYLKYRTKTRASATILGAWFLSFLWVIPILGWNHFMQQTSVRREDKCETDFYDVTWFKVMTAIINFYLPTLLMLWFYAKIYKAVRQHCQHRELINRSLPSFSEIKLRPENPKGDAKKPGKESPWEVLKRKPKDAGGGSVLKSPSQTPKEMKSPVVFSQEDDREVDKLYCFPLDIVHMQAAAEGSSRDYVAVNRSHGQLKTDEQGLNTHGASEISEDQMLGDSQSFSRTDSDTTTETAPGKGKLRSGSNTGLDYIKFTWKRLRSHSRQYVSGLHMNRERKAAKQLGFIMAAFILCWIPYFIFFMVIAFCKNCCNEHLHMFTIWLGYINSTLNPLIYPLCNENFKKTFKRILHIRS
5-hydroxytryptamine receptor 7, sequence (P34969 whole entry): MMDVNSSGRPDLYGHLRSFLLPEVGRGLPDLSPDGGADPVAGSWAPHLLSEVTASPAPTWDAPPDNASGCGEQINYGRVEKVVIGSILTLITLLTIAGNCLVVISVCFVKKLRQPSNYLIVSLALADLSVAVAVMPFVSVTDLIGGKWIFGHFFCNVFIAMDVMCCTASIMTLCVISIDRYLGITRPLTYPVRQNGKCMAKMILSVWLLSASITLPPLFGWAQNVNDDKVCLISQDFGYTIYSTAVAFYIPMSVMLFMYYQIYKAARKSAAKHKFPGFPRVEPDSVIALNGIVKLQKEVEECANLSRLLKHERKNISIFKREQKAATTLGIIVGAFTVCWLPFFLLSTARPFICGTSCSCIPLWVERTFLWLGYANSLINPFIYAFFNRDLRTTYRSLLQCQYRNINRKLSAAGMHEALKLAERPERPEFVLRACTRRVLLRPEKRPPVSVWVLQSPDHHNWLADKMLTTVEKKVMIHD
Voltage-dependent L-type calcium channel subunit alpha-1C, sequence (Q13936 whole entry): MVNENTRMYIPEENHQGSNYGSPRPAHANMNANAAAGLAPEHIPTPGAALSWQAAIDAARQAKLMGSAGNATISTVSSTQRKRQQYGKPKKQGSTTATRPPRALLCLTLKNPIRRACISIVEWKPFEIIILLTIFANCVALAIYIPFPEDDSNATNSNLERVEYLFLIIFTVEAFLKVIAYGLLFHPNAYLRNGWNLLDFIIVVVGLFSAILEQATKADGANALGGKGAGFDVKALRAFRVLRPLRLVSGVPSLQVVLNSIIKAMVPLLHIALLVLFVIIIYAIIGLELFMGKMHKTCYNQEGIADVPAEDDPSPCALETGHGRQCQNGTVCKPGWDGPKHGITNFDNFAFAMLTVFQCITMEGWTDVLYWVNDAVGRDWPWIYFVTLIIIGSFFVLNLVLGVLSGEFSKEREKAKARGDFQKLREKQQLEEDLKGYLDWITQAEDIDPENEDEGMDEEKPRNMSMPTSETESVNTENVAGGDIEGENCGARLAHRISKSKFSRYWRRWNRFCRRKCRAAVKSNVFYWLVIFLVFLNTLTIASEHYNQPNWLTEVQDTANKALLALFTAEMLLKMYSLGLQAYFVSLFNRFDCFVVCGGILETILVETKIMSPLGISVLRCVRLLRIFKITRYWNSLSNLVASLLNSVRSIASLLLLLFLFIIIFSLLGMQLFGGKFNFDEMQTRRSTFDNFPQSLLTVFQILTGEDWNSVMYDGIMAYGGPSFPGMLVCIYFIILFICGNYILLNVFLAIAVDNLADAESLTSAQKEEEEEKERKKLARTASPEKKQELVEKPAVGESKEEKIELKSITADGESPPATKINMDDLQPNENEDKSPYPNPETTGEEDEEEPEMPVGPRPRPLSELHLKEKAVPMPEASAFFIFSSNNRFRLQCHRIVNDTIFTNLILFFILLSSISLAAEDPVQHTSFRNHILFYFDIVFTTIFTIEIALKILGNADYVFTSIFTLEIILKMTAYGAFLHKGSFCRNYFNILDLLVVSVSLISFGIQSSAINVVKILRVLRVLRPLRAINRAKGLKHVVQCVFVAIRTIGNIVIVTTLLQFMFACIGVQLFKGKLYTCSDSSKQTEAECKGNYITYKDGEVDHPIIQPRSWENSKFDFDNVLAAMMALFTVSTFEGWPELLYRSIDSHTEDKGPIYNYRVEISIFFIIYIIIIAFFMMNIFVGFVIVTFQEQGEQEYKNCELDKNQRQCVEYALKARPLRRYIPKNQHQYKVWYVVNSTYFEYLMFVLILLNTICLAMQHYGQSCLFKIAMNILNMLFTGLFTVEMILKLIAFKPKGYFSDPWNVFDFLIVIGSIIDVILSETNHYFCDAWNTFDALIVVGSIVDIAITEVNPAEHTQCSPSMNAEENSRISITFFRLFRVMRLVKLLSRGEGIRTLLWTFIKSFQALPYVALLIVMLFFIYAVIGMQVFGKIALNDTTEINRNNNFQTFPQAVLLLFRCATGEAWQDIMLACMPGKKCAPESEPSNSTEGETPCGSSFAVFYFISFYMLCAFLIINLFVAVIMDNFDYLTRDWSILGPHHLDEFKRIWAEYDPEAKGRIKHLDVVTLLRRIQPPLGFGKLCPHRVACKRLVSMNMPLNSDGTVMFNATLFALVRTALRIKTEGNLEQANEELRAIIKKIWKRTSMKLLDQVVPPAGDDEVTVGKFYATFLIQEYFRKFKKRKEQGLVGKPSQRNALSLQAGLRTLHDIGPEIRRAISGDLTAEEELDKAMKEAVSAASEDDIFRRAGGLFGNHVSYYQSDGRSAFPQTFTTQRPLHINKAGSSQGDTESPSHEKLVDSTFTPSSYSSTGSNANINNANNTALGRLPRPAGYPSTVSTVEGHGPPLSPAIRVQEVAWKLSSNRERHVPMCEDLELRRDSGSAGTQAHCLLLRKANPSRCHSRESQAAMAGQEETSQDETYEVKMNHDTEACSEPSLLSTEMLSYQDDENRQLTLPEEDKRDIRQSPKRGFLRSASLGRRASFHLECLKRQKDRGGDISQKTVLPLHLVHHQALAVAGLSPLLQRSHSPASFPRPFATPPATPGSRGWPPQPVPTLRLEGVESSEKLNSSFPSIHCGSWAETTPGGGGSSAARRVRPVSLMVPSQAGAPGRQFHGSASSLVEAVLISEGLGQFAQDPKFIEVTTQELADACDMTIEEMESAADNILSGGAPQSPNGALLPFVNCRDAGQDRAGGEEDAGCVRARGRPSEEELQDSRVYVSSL

On to `C[C@@H](NCCCc1cccc(C(F)(F)F)c1)c1cccc2ccccc12`, for which the half-maximal activity concentration (AC50) on Histamine H1 receptor is more than 30 µM.
Take `CCN1CCN(Cc2ccc(Nc3ncc(F)c(-c4cc(F)c5nc(C)n(C(C)C)c5c4)n3)nc2)CC1` [ABEMACICLIB]: the half-maximal activity concentration (AC50) on Estrogen receptor [1] and at Estrogen receptor [2] was more than 30 µM in each case.
With `CCCN(CCC)C(=O)Cc1c(-c2ccc(Cl)cc2)nc2ccc(Cl)cn12` [ALPIDEM], the half-maximal activity concentration (AC50) in assay [3] and in assay [4] was more than 10 µM throughout.
`COc1ccccc1Oc1c(NS(=O)(=O)c2ccc(C(C)(C)C)cc2)nc(-c2ncccn2)nc1OCCO` [BOSENTAN]: on Histamine H1 receptor, the half-maximal activity concentration (AC50) is more than 30 µM.
Regarding `COc1cc2nccc(Oc3ccc(NC(=O)C4(C(=O)Nc5ccc(F)cc5)CC4)cc3)c2cc1OC` [CABOZANTINIB], the half-maximal activity concentration (AC50) at Estrogen receptor [1] was more than 10 µM; at Estrogen receptor [2], more than 30 µM.
As for `COc1ccccc1OCCNCC(O)COc1cccc2[nH]c3ccccc3c12` (centres undefined) [CARVEDILOL], the AC50 was more than 10 µM in assay [3], 1.58 µM in assay [4] and 0.481 µM at Substance-P receptor.
Turning to `O=C1CCc2cc(OCCCCc3nnnn3C3CCCCC3)ccc2N1` [CILOSTAZOL], the AC50 in assay [5] is more than 50 µM.
Take `CC(C)N(CCC(C(N)=O)(c1ccccc1)c1ccccn1)C(C)C` (centres undefined) [DISOPYRAMIDE]: the concentration at half-maximal activity (AC50) on Histamine H1 receptor was more than 30 µM; in assay [5] it was more than 50 µM.
`C[C@H]1c2cccc(O)c2C(=O)C2=C(O)[C@]3(O)C(=O)C(C(N)=O)=C(O)[C@@H](N(C)C)[C@@H]3[C@@H](O)[C@@H]21` [DOXYCYCLINE]: the AC50 on Substance-P receptor was more than 10 µM.
On to `CN1C[C@H](C(=O)N[C@]2(C)O[C@@]3(O)[C@@H]4CCCN4C(=O)[C@H](Cc4ccccc4)N3C2=O)C=C2c3cccc4[nH]cc(c34)C[C@H]21` [ERGOTAMINE], for which the AC50 at Estrogen receptor [1] and at Estrogen receptor [2] was more than 30 µM in each case.
`O=C(O)CO` [GLYCOLIC ACID] came in with an AC50 in assay [6] of more than 30 µM.
With `CC(C)Cc1ccc(C(C)C(=O)O)cc1` (centres undefined) [IBUPROFEN], the half-maximal activity concentration (AC50) (in assay [3]; in assay [4]; at Substance-P receptor) was more than 10 µM each time.
For the molecule `CN1C(C(=O)Nc2ccccn2)=C(O)c2ccccc2S1(=O)=O` [PIROXICAM], the AC50 in assay [6] was more than 30 µM.
For `C=C[C@H]1C[N@@]2CC[C@H]1C[C@@H]2[C@@H](O)c1ccnc2ccc(OC)cc12` [QUINIDINE], the AC50 on Histamine H1 receptor was more than 30 µM.
As for `CO[C@H]1/C=C/O[C@@]2(C)Oc3c(C)c(O)c4c(O)c(c(/C=N/N5CCN(C)CC5)c(O)c4c3C2=O)NC(=O)/C(C)=C\C=C\[C@H](C)[C@H](O)[C@@H](C)[C@@H](O)[C@@H](C)[C@H](OC(C)=O)[C@@H]1C` [RIFAMPIN], the concentration at half-maximal activity (AC50) in assay [4] was more than 10 µM.
As for `CN(C)CCc1c[nH]c2ccc(Cn3cncn3)cc12` [RIZATRIPTAN], the AC50 was more than 10 µM in assay [3], 20 µM on Histamine H1 receptor, more than 10 µM in assay [4] and more than 10 µM at Substance-P receptor.
Turning to `CC(C)c1nc(N(C)S(C)(=O)=O)nc(-c2ccc(F)cc2)c1/C=C/[C@@H](O)C[C@@H](O)CC(=O)O` [ROSUVASTATIN], the AC50 on Estrogen receptor [1], at Estrogen receptor [2] and on Histamine H1 receptor was more than 30 µM each time.
In assay [6], `OC[C@@H](O)[C@@H](O)[C@H](O)[C@@H](O)CO` [SORBITOL] yielded an AC50 of more than 30 µM.
For `Nc1ccc(S(=O)(=O)Nc2nccs2)cc1` [SULFATHIAZOLE], on Substance-P receptor, the AC50 was more than 10 µM.
As to `CCN(CC)CCNC(=O)c1c(C)[nH]c(/C=C2\C(=O)Nc3ccc(F)cc32)c1C` [SUNITINIB], the AC50 in assay [4] was more than 30 µM; in assay [5], more than 50 µM.
Regarding `COc1cc2nc(N3CCN(C(=O)C4CCCO4)CC3)nc(N)c2cc1OC` (centres undefined) [TERAZOSIN], at Substance-P receptor, the AC50 is more than 10 µM.
Regarding `C[C@H](CCC(=O)O)[C@H]1CC[C@H]2[C@@H]3[C@@H](O)C[C@@H]4C[C@H](O)CC[C@]4(C)[C@H]3CC[C@]12C` [URSODIOL], the half-maximal activity concentration (AC50) at Estrogen receptor [1] and at Estrogen receptor [2] was more than 30 µM in each case.
For `Cc1onc(-c2ccccc2)c1-c1ccc(S(N)(=O)=O)cc1` [VALDECOXIB], the AC50 (in assay [3]; in assay [4]; at Substance-P receptor) was more than 10 µM throughout.
As to `CCCC(CCC)C(=O)O` [VALPROIC ACID], the AC50 (in assay [3]; in assay [4]; at Substance-P receptor) was more than 10 µM in each case.
